Data published in patent publication US12421535B2, “Biochemically produced sandalwood oil” (FIRMENICH SA, priority 2019, dated 2025).

Experiments:
NHDFs fibroblasts = test: Cytotoxicity MTS assay, NHDFs under LPS challenge; assay type: cell-based, human; conditions: SDS 0.08%, 26 h
Procedure: (§1) A preliminary study was performed in order to determine the non-cytotoxic working concentrations for both the sandalwood oil of the invention and a reference sandalwood oil. The cell viability was evaluated using the standard MTS assay (3-(4,5-dimethythiazol-2-yl)-5-(3-carboxy-methoxyphenyl)-2-(4-sulfophenyl)-2H-tetrazolium) after treatment with the test ingredients (160-80-40-20-10 μg/ml, tested in triplicate).
(§2) The test was performed both under basal conditions (i.e. without pro-inflammatory challenge) and pro-inflammatory stimuli for either 24 h-72 h or 26 h, respectively. Cells were seeded in 24-wells plates with complete medium, 24 h before treatment.
(§3) Test ingredients were solubilized in solvent (DMSO or ethanol) and applied to the culture medium of cells 2 hours prior to the pro-inflammatory challenge (when required). SDS at 0.008% or 0.08% was used as cytotoxicity positive control to validate the experiment on NHEKs keratinocytes or NHDFs fibroblasts, respectively.
(§4) In order to ensure experiments would be carried out with test composition concentrations that are non-cytotoxic, a cytotoxicity study was performed on NHEK and NHDF after 26 h of treatment (2 h alone and 24 h under inflammatory challenge with LPS for NHDFs fibroblasts and PMA/calcium ionophore or TNF-α for NHEKs). […]

NHEKs keratinocytes = test: Cytotoxicity MTS assay, NHEKs under PMA/calcium ionophore or TNF-α challenge; assay type: cell-based, human; conditions: SDS 0.008%, 26 h
Procedure: as §1, §2, §3, §4

[1] = tested on: Reconstructed Human Epidermis (RHE); test: Permeability of Reconstructed Human Epidermis, biotin diffusion; assay type: cell-based
[2] = tested on: Reconstructed Human Epidermis (RHE) mimicking sensitive skin; test: Protein expression (immuno-fluorescence) in RHE model mimicking sensitive skin; assay type: cell-based; conditions: Cytokine Mix + solvent, 10 uM, 48 h, untreated = 100
Procedure: Human epidermis was reconstituted in vitro as described previously. […] Sandalwood oil of the invention was diluted at 20 μg/ml and 40 μg/ml in culture medium and added together with the cytokine cocktail during the same 48 h. The reference compound GW3965 (10 μM), a synthetic nonsteroidal liver X receptor (LXR) agonist was applied in the culture medium for 48 h as well. Protein levels of loricrin, involucrin and HAS3 were quantified at the end of the treatments by immuno-fluorescence. One section of each sample was dewaxed and rehydrated and the slides were incubated in the presence of the primary antibody specific for each of the 3 target proteins. Fluorescein-conjugated secondary antibodies were then used to detect the primary antibodies. DAPI Slowfade Diamond was used to detect the nuclei of the cells.

NHDF = test: Anti-inflammatory test, cytokine release (ELISA), LPS-challenged fibroblasts; assay type: cell-based, human; conditions: LPS 0.5 ug/ml
Procedure: (§5) Monolayer cultures of Normal Human foreskin-derived Dermal Fibroblasts (NHDFs; ATCC, CRL-2522) were used for the anti-inflammatory study. The cells were grown in Dulbecco's Modified Eagle Medium (DMEM, Gibco/Life Technologies, 31885) supplemented with 10% of Foetal Bovine Serum (FBS, Gibco/Life Technologies, 10270) and antibiotics (penicillin/streptomycin, Gibco/Life Technologies, 15140). Monolayer cultures of Normal Human Epidermal Keratinocytes (NHEKs; Lonza, 00192906) were used for the anti-inflammatory study. The cells were grown in Epilife medium containing gentamycin and HKGS (Human Keratinocyte Growth Supplement).
(§6) The cells were maintained in a humidified incubator at 37° C. with a 5% CO2 atmosphere for the indicated treatment periods before performing metabolic, cytokine and gene expression assays.
(§7) Both NHEK and NHDF cell types were cultured in 24-well plates for 24 h in complete medium before being exposed to the test and reference items. Test compositions were applied on the cells 2 h before the 24 h-challenge with pro-inflammatory agents (see table below). Each sample was compared to solvent control conditions. At the end of treatment, all the supernatants were collected and stored at −20° C. until further use in specific ELISA assays for the quantification of the extracellular release of IL-8, IL-6, TNF-α, MCP-1 and CXCL5, based on a standard curve, according to the kits supplier's specifications.
(§8) Sandalwood oil of the invention was tested at 20 μg/ml on both keratinocytes and fibroblasts, in a comparison with S. album essential oil. Keratinocytes and fibroblasts were cultivated under conditions that stimulate the onset of inflammation. After induction of an inflammation state and test compounds application, cell culture supernatants were collected for further ELISA quantification. The ability of the ingredients in reducing the production of selected inflammation markers (MCP-1, CXCL5, IL-6, IL-8 and TNFalpha for NHEK only) was then measured by ELISA (Enzyme-Linked ImmunoSorbent Assay), a biochemical assay commonly used to quantify substances.

NHEK = test: Anti-inflammatory test, cytokine release (ELISA), keratinocytes challenged with TNFα or PMA + A23187; assay type: cell-based, human; conditions: for IL-6 % Reduction (vs A23187/EtOH) / IL-6 % Stimulation (vs Untreated) / IL-8 % Reduction (vs PMA + A23187/EtOH) / IL-8 % Stimulation (vs Untreated) / TNFα % Reduction (vs PMA + A23187/EtOH) / TNFα % Stimulation (vs Untreated): PMA 10 ng/ml + A23187 2 uM; for CXCL-5 % Reduction (vs TNFa/EtOH) / CXCL-5 % Stimulation (vs Untreated) / MCP-1 % Reduction (vs TNFa/EtOH) / MCP-1 % Stimulation (vs Untreated): TNFa 50 ng/ml
Procedure: as §5, §6, §7, §8

ticks (Ixodes ricinus) = test: Tick repellency, adapted Warm Plate assay; assay type: in vivo
Procedure: The repellent effect was determined on ticks (Ixodes ricinus) using an adaptation of the Warm Plate assay as defined in Kröber T, Bourquin M, Guerin P M. A standardised in vivo and in vitro test method for evaluating tick repellents. Pesticide Biochemistry and Physiology. 2013; 107(2):160-168, adapted in reducing the size of the arena and adding a controlled temperature and humid air flow to the set-up.

CCCCCCCCCCCCOS(=O)(=O)[O-].[Na+] [SDS]
cell viability (NHDFs fibroblasts): strong decrease in cell viability | cell viability (NHEKs keratinocytes): strong decrease in cell viability | Surface stained*mean intensity/surface area ([1]; 48 h, SDS 0.005%): 103 | biotin abundance (% relative to untreated) ([1]; 48 h, SDS 0.005%, versus untreated): 614% | barrier function of epidermis ([1]; SDS at 0.005%, compared to untreated control): reduced the barrier function

O=C(O)Cc1cccc(OCCCN(Cc2cccc(C(F)(F)F)c2Cl)CC(c2ccccc2)c2ccccc2)c1 [GW3965]
Hyaluronan synthase 3 (HAS 3) RQ [2]: 106 | Involucrin (IVL) RQ [2]: 160

CC(C)Cc1ccc(C(C)C(=O)O)cc1 (centres unmarked) [Ibuprofen]
CXCL-5 % Reduction (vs LPS/EtOH) (NHDF; 100 uM): −19% | CXCL-5 % Stimulation (vs Untreated) (NHDF; 100 uM): 2929% | IL-6 % Reduction (vs LPS/EtOH) (NHDF; 100 uM): −24% | IL-6 % Stimulation (vs Untreated) (NHDF; 100 uM): 16853% | IL-8 % Reduction (vs LPS/EtOH) (NHDF; 100 uM): −14% | IL-8 % Stimulation (vs Untreated) (NHDF; 100 uM): 11037% | MCP-1 % Reduction (vs LPS/EtOH) (NHDF; 100 uM): −4% | MCP-1 % Stimulation (vs Untreated) (NHDF; 100 uM): 1342% | CXCL-5 % Reduction (vs LPS/EtOH) (NHDF; 500 uM): −39% | CXCL-5 % Stimulation (vs Untreated) (NHDF; 500 uM): 2216% | IL-6 % Reduction (vs LPS/EtOH) (NHDF; 500 uM): −46% | IL-6 % Stimulation (vs Untreated) (NHDF; 500 uM): 11977% | IL-8 % Reduction (vs LPS/EtOH) (NHDF; 500 uM): −36% | IL-8 % Stimulation (vs Untreated) (NHDF; 500 uM): 8242% | MCP-1 % Reduction (vs LPS/EtOH) (NHDF; 500 uM): −32% | MCP-1 % Stimulation (vs Untreated) (NHDF; 500 uM): 950% | IL-6 % Reduction (vs A23187/EtOH) (NHEK; 100 uM): −24% | IL-6 % Stimulation (vs Untreated) (NHEK; 100 uM): 462% | IL-8 % Reduction (vs PMA + A23187/EtOH) (NHEK; 100 uM): −19% | IL-8 % Stimulation (vs Untreated) (NHEK; 100 uM): 16034% | TNFα % Reduction (vs PMA + A23187/EtOH) (NHEK; 100 uM): −29% | TNFα % Stimulation (vs Untreated) (NHEK; 100 uM): 55645% | IL-6 % Reduction (vs A23187/EtOH) (NHEK; 500 uM): −67% | IL-6 % Stimulation (vs Untreated) (NHEK; 500 uM): 202% | IL-8 % Reduction (vs PMA + A23187/EtOH) (NHEK; 500 uM): −39% | IL-8 % Stimulation (vs Untreated) (NHEK; 500 uM): 12190% | TNFα % Reduction (vs PMA + A23187/EtOH) (NHEK; 500 uM): −85% | TNFα % Stimulation (vs Untreated) (NHEK; 500 uM): 12099% | secretion levels of mediators of inflammation (NHEK; PMA + A23187 or TNF-α, dexamethasone with the exception of CXCL-5): reduced significantly | CXCL-5 % Reduction (vs TNFa/EtOH) (NHEK; 100 uM): −22% | CXCL-5 % Stimulation (vs Untreated) (NHEK; 100 uM): 337% | MCP-1 % Reduction (vs TNFa/EtOH) (NHEK; 100 uM): −18% | MCP-1 % Stimulation (vs Untreated) (NHEK; 100 uM): 2471% | CXCL-5 % Reduction (vs TNFa/EtOH) (NHEK; 500 uM): −47% | CXCL-5 % Stimulation (vs Untreated) (NHEK; 500 uM): 229% | MCP-1 % Reduction (vs TNFa/EtOH) (NHEK; 500 uM): −63% | MCP-1 % Stimulation (vs Untreated) (NHEK; 500 uM): 1126%

CCN(CC)C(=O)c1cccc(C)c1 [DEET, N,N-diethyl-meta-toluamide]
% of affected ticks (ticks (Ixodes ricinus); 0.016 mg/mL): 11% | % of affected ticks (ticks (Ixodes ricinus); 0.4 mg/mL): 20% | % of affected ticks (ticks (Ixodes ricinus); 10 mg/mL): 81%

CCCCN(CCC(=O)OCC)C(C)=O [IR3535, Ethyl butylacetylaminopropionate]
% of affected ticks (ticks (Ixodes ricinus); 0.016 mg/mL): 0% | % of affected ticks (ticks (Ixodes ricinus); 0.4 mg/mL): 33% | % of affected ticks (ticks (Ixodes ricinus); 10 mg/mL): 56%

CCC(C)OC(=O)N1CCCCC1CCO (centres unmarked) [Picaridin, sec-butyl 2-(2-hydroxyethyl)piperidine-1-carboxylate]
% of affected ticks (ticks (Ixodes ricinus); 0.016 mg/mL): 8% | % of affected ticks (ticks (Ixodes ricinus); 0.4 mg/mL): 50% | % of affected ticks (ticks (Ixodes ricinus); 10 mg/mL): 92%

C[C@@H]1C[C@H]2[C@@H]3CCC4=CC(=O)C=C[C@]4(C)[C@@]3(F)[C@@H](O)C[C@]2(C)[C@@]1(O)C(=O)CO [Dexamethasone]
CXCL-5 % Reduction (vs LPS/EtOH) (NHDF; 10 uM): 77% | CXCL-5 % Stimulation (vs Untreated) (NHDF; 10 uM): 6414% | IL-6 % Reduction (vs LPS/EtOH) (NHDF; 10 uM): −70% | IL-6 % Stimulation (vs Untreated) (NHDF; 10 uM): 6606% | IL-8 % Reduction (vs LPS/EtOH) (NHDF; 10 uM): −39% | IL-8 % Stimulation (vs Untreated) (NHDF; 10 uM): 7738% | MCP-1 % Reduction (vs LPS/EtOH) (NHDF; 10 uM): −23% | MCP-1 % Stimulation (vs Untreated) (NHDF; 10 uM): 1067% | IL-6 % Reduction (vs A23187/EtOH) (NHEK; 10 uM): −55% | IL-6 % Stimulation (vs Untreated) (NHEK; 10 uM): 275% | IL-8 % Reduction (vs PMA + A23187/EtOH) (NHEK; 10 uM): −25% | IL-8 % Stimulation (vs Untreated) (NHEK; 10 uM): 14801% | TNFα % Reduction (vs PMA + A23187/EtOH) (NHEK; 10 uM): −57% | TNFα % Stimulation (vs Untreated) (NHEK; 10 uM): 33869% | CXCL-5 % Reduction (vs TNFa/EtOH) (NHEK; 10 uM): 251% | CXCL-5 % Stimulation (vs Untreated) (NHEK; 10 uM): 1525% | MCP-1 % Reduction (vs TNFa/EtOH) (NHEK; 10 uM): −53% | MCP-1 % Stimulation (vs Untreated) (NHEK; 10 uM): 1432%
